This is an account of results in paper PMC3774368, “Functional Properties of Five Dictyostelium discoideum P2X Receptors” (The Journal of Biological Chemistry, 2013).

Usually pEC50 stands for the negative decadic logarithm of the EC50, by convention in mol/L. A high value points to a small EC50.

pEC50: −log10 of the molar value.

Type in all cases: cell-based
Assay [1] addresses T1, P2XA (Dictyostelium discoideum, UniProt Q86JM7).
T1 construct: humanized cDNA, full length, C-terminal EYMPME (EE) tag, pcDNA3.1, transient expression in HEK293 cells
T1 sequence (Q86JM7 1-378): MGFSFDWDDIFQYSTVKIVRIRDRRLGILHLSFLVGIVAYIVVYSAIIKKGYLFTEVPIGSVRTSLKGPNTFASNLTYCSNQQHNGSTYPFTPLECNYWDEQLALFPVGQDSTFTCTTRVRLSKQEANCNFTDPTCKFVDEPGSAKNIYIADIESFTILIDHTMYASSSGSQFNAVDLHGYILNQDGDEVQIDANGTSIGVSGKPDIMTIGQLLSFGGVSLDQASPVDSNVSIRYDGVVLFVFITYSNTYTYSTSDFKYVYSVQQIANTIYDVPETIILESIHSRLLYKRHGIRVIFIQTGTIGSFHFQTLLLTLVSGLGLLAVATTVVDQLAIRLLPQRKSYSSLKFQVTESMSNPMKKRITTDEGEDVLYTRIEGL
Kind of assay: whole-cell patch clamp, ADP-evoked current, HEK293 cells. The conditions noted are these: weak agonist; external and internal Na+; authors note possible ATP impurity in commercial nucleotides. A general note: Patch clamp records ionic current or voltage across a cell membrane.

Assay [2] has as its target T2, P2XE (Dictyostelium discoideum, UniProt Q54JH4).
T2 construct: humanized cDNA (Genscript), full length, C-terminal EYMPME (EE) tag, pcDNA3.1, transient expression in HEK293 cells
T2 sequence (Q54JH4 1-388): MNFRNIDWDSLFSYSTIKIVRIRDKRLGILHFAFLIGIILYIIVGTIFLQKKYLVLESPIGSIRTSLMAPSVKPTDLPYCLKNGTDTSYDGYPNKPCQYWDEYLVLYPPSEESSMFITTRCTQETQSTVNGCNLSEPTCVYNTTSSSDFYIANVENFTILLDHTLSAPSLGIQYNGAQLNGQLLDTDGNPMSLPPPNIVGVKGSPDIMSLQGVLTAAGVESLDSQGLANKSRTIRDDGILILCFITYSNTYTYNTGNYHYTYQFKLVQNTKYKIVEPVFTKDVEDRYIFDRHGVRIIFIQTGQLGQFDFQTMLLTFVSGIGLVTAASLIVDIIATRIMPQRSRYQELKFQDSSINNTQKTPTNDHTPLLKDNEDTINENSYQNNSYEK
Nature of the assay: whole-cell patch clamp, ATP-evoked current, HEK293 cells.

The target in assay [3] is T3, P2XB (Dictyostelium discoideum, UniProt Q553Y1).
T3 construct: humanized cDNA (Genscript), full length, C-terminal EYMPME (EE) tag, pcDNA3.1, transient expression in HEK293 cells
T3 sequence (Q553Y1 1-369): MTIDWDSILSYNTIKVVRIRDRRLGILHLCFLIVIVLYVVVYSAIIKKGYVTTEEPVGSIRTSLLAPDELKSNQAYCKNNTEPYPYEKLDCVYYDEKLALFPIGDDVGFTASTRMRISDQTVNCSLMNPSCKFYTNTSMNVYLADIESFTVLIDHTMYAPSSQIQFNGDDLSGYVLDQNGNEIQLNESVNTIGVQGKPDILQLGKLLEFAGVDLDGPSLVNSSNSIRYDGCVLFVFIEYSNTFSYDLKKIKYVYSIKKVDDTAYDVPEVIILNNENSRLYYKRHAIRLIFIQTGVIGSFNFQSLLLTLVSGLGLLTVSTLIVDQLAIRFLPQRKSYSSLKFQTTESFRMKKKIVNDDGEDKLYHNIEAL
The assay is described as above.

For assay [4], the target named is T1, P2XA. The description is as above.
Assay [5] has as its target T4, P2XD (Dictyostelium discoideum, UniProt Q54J33).
T4 construct: humanized cDNA (Genscript), full length, C-terminal EYMPME (EE) tag, pcDNA3.1, transient expression in HEK293 cells
T4 sequence (Q54J33 1-407): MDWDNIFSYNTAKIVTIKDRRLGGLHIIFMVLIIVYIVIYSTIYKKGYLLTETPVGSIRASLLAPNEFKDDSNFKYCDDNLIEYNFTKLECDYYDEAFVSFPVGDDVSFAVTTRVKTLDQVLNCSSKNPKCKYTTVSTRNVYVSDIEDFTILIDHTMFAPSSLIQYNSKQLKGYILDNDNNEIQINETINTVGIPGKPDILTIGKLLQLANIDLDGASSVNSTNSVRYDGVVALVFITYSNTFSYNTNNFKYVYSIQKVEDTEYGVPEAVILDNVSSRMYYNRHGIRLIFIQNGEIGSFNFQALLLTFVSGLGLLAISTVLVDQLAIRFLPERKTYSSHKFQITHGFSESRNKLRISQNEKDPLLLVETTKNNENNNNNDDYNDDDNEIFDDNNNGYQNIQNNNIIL
The description is as above.

For the compound `Nc1ncnc2c1ncn2[C@@H]1O[C@H](COP(=O)(O)OP(=O)(O)O)[C@@H](O)[C@H]1O` [ADP], the “% of ATP current at 3 mM” value in assay [1] is given as ~ 10%.
`Nc1ncnc2c1ncn2[C@@H]1O[C@H](COP(=O)(O)OP(=O)(O)OP(=O)(O)O)[C@@H](O)[C@H]1O` [ATP]: the pEC50 in assay [2] is about 3.52; in assay [3], about 2.52; in assay [4] it was 3.80; in assay [5] it was about 2.52.
